Measured values taken from patent US9034921B2, “Diphenylmethane derivatives as SGLT2 inhibitors” (GREEN CROSS CORPORATION, priority 2011, dated 2015).

target: human SGLT2 (Homo sapiens (Human), UniProt P31639); assay: Inhibitory effects on human SGLT2 activities (14C-AMG uptake, sodium-dependent glucose transport assay); type: cell-based; details: CHO cells stably expressing hSGLT2, 37° C., 2 h, single determinations
Description: Test 1: Cloning and Cell Line Construction for Human SGLT2
Human SGLT2 (hSGLT2) gene was amplified by PCR from cDNA-Human Adult Normal Tissue Kidney (Invitrogen). The hSGLT2 sequence was cloned into pcDNA3.1(+) for mammalian expression and stably transfected into chinese hamster ovary (CHO) cells. SGLT2-expressing clones were selected based on resistance to G418 antibiotic (Geneticin) and activity in the ^14C-α-methyl-D-glucopyranoside (^14C-AMG) uptake assay.
Test 2: Inhibitory Effects on Human SGLT2 Activities
For sodium-dependent glucose transport assay, cells expressing hSGLT2 were seeded into a 96-well culture plate at a density of 5×10^4 cells/well in RPMI medium 1640 containing 10% fetal bovine serum. The cells were used 1 day after plating. They were incubated in pretreatment buffer (10 mM HEPES, 5 mM Tris, 140 mM choline chloride, 2 mM KCl, 1 mM CaCl2, and 1 mM MgCl2, pH 7.4) at 37° C. for 10 min. They were then incubated in uptake buffer (10 mM HEPES, 5 mM Tris, 140 mM NaCl, 2 mM KCl, 1 mM CaCl2, 1 mM MgCl2, and 1 mM ^14C-nonlabeled AMG pH 7.4) containing ^14C-labeled AMG (8 μM) and the inventive compound or dimethyl sulfoxide (DMSO) vehicle at 37° C. for 2 h. Cells were washed twice with washing buffer (pretreatment buffer containing 10 mM AMG at room temperature) and then the radioactivity was measured using a liquid scintillation counter. IC50 was determined by nonlinear regression analysis using GraphPad PRISM [Katsuno, K. et al. J. Pharmacol. Exp. Ther. 2007, 320, 323-330; Han, S. et al. Diabetes, 2008, 57, 1723-1729].

human SGLT2, sequence (P31639 whole entry): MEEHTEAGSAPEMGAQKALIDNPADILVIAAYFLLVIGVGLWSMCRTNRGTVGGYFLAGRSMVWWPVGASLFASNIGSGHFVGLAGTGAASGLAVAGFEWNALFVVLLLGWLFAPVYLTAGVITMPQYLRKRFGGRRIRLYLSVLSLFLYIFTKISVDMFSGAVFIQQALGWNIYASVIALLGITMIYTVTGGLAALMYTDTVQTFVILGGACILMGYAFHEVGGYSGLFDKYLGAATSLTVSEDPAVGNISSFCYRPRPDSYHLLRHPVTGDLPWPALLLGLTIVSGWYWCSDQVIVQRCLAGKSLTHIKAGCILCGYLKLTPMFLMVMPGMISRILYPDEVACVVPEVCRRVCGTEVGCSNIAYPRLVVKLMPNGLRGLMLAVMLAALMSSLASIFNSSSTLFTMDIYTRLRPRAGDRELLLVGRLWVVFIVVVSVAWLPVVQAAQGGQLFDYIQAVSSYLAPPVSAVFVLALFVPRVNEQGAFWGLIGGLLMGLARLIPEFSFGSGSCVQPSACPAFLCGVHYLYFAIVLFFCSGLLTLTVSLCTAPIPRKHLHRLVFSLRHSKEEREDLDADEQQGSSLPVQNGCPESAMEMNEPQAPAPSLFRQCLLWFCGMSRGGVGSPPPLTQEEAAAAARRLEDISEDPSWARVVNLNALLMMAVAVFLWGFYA

| SMILES | IC50 [nM] |
| --- | --- |
| COc1ccc(Cc2cc([C@@H]3O[C@H](CO)[C@@H](O)[C@H](O)[C@H]3O)c3c(c2Br)CCC3)cc1 [Example E001, (2S,3R,4R,5S,6R)-2-(7-Bromo-6-(4-methoxybenzyl)-2,3-dihydro-1H-inden-4-yl)-6-(hydroxymethyl)tetrahydro-2H-pyran-3,4,5-triol] | 1.15 |
| CCOc1ccc(Cc2cc3c(c([C@@H]4O[C@H](CO)[C@@H](O)[C@H](O)[C@H]4O)c2)CCC3)cc1 [Example E002, (2S,3R,4R,5S,6R)-2-(6-(4-Ethoxybenzyl)-2,3-dihydro-1H-inden-4-yl)-6-(hydroxymethyl)tetrahydro-2H-pyran-3,4,5-triol] | 9 |
| CCOc1ccc(Cc2cc([C@@H]3O[C@H](CO)[C@@H](O)[C@H](O)[C@H]3O)c3c(c2Br)CCC3)cc1 [Example E003, (2S,3R,4R,5S,6R)-2-(7-Bromo-6-(4-ethoxybenzyl)-2,3-dihydro-1H-inden-4-yl)-6-(hydroxymethyl)tetrahydro-2H-pyran-3,4,5-triol] | 0.738 |
| CCc1ccc(Cc2cc([C@@H]3O[C@H](CO)[C@@H](O)[C@H](O)[C@H]3O)c3c(c2Br)CCC3)cc1 [Example E004, (2S,3R,4R,5S,6R)-2-(7-Bromo-6-(4-ethylbenzyl)-2,3-dihydro-1H-inden-4-yl)-6-(hydroxymethyl)tetrahydro-2H-pyran-3,4,5-triol] | 0.661 |
| COc1ccc(Cc2cc([C@@H]3O[C@H](CO)[C@@H](O)[C@H](O)[C@H]3O)c3c(c2Cl)CCC3)cc1 [Example E005, (2S,3R,4R,5S,6R)-2-(7-Chloro-6-(4-methoxybenzyl)-2,3-dihydro-1H-inden-4-yl)-6-(hydroxymethyl)tetrahydro-2H-pyran-3,4,5-triol] | 0.681 |
| COc1ccc(Cc2cc([C@@H]3O[C@H](CO)[C@@H](O)[C@H](O)[C@H]3O)c3c(c2F)CCC3)cc1 [Example E006, (2S,3R,4R,5S,6R)-2-(7-Fluoro-6-(4-methoxybenzyl)-2,3-dihydro-1H-inden-4-yl)-6-(hydroxymethyl)tetrahydro-2H-pyran-3,4,5-triol] | 2.03 |
| COc1ccc(Cc2cc([C@@H]3O[C@H](CO)[C@@H](O)[C@H](O)[C@H]3O)c3c(c2C)CCC3)cc1 [Example E007, (2R,3S,4R,5R,6S)-2-(Hydroxymethyl)-6-(6-(4-methoxybenzyl)-7-methyl-2,3-dihydro-1H-inden-4-yl)tetrahydro-2H-pyran-3,4,5-triol] | 0.793 |
| CCOc1ccc(Cc2cc([C@@H]3O[C@H](CO)[C@@H](O)[C@H](O)[C@H]3O)c3c(c2Cl)CCC3)cc1 [Example E008, (2S,3R,4R,5S,6R)-2-(7-Chloro-6-(4-ethoxybenzyl)-2,3-dihydro-1H-inden-4-yl)-6-(hydroxymethyl)tetrahydro-2H-pyran-3,4,5-triol] | 0.551 |
| CCc1ccc(Cc2cc([C@@H]3O[C@H](CO)[C@@H](O)[C@H](O)[C@H]3O)c3c(c2Cl)CCO3)cc1 [Example E010, (2S,3R,4R,5S,6R)-2-(4-Chloro-5-(4-ethylbenzyl)-2,3-dihydrobenzofuran-7-yl)-6-(hydroxymethyl)tetrahydro-2H-pyran-3,4,5-triol] | 0.884 |
| CCOc1ccc(Cc2cc([C@@H]3O[C@H](CO)[C@@H](O)[C@H](O)[C@H]3O)c3c(c2Cl)CC(C)O3)cc1 (stereo partly drawn) [Example E011, (2S,3R,4R,5S,6R)-2-(4-Chloro-5-(4-ethoxybenzyl)-2-methyl-2,3-dihydrobenzofuran-7-yl)-6-(hydroxymethyl)tetrahydro-2H-pyran-3,4,5-triol] | 1.28 |
| CCOc1ccc(Cc2cc([C@@H]3O[C@H](CO)[C@@H](O)[C@H](O)[C@H]3O)c3c(c2Cl)CCCO3)cc1 [Example E012, (2S,3R,4R,5S,6R)-2-(5-Chloro-6-(4-ethoxybenzyl)chroman-8-yl)-6-(hydroxymethyl)tetrahydro-2H-pyran-3,4,5-triol] | 1.55 |
| CCOc1ccc(Cc2cc([C@@H]3O[C@H](CO)[C@@H](O)[C@H](O)[C@H]3O)c3c(c2Cl)OCCO3)cc1 [Example E013, (2S,3R,4R,5S,6R)-2-(8-Chloro-7-(4-ethoxybenzyl)-2,3-dihydrobenzo[b][1,4]dioxin-5-yl)-6-(hydroxymethyl)tetrahydro-2H-pyran-3,4,5-triol] | 1.27 |

The remaining lines, values ahead:

| IC50 [nM] | SMILES |
| --- | --- |
| 0.978 | COc1ccc(Cc2cc([C@@H]3O[C@H](CO)[C@@H](O)[C@H](O)[C@H]3O)c3c(c2Cl)CCCO3)cc1 [Example E016, (2S,3R,4R,5S,6R)-2-(5-Chloro-6-(4-methoxybenzyl)chroman-8-yl)-6-(hydroxymethyl)tetrahydro-2H-pyran-3,4,5-triol] |
| 0.845 | CCc1ccc(Cc2cc([C@@H]3O[C@H](CO)[C@@H](O)[C@H](O)[C@H]3O)c3c(c2Cl)CCCO3)cc1 [Example E017, (2S,3R,4R,5S,6R)-2-(5-Chloro-6-(4-ethylbenzyl)chroman-8-yl)-6-(hydroxymethyl)tetrahydro-2H-pyran-3,4,5-triol] |
| 1.53 | COc1ccc(Cc2cc([C@@H]3O[C@H](CO)[C@@H](O)[C@H](O)[C@H]3O)c3c(c2Cl)OCC3)cc1 [Example E019, (2S,3R,4R,5S,6R)-2-(7-Chloro-6-(4-methoxybenzyl)-2,3-dihydrobenzofuran-4-yl)-6-(hydroxymethyl)tetrahydro-2H-pyran-3,4,5-triol] |
| 0.715 | CCc1ccc(Cc2cc([C@@H]3O[C@H](CO)[C@@H](O)[C@H](O)[C@H]3O)c3c(c2Cl)OCC3)cc1 [Example E020, (2S,3R,4R,5S,6R)-2-(6-(4-Ethylbenzyl)-7-chloro-2,3-dihydrobenzofuran-4-yl)-6-(hydroxymethyl)-tetrahydro-2H-pyran-3,4,5-triol] |
| 1.72 | COc1ccc(Cc2cc([C@@H]3O[C@H](CO)[C@@H](O)[C@H](O)[C@H]3O)c3c(c2Cl)CCO3)cc1 [Example E021, (2S,3R,4R,5S,6R)-2-(4-Chloro-5-(4-methoxybenzyl)-2,3-dihydrobenzofuran-7-yl)-6-(hydroxymethyl)tetrahydro-2H-pyran-3,4,5-triol] |
| 0.833 | CCOc1ccc(Cc2cc([C@@H]3O[C@H](CO)[C@@H](O)[C@H](O)[C@H]3O)c3c(c2Cl)CCO3)cc1 [Example E022, (2S,3R,4R,5S,6R)-2-(4-Chloro-5-(4-ethoxybenzyl)-2,3-dihydrobenzofuran-7-yl)-6-(hydroxymethyl)tetrahydro-2H-pyran-3,4,5-triol] |
| 0.753 | CCc1ccc(Cc2cc([C@@H]3O[C@H](CO)[C@@H](O)[C@H](O)[C@H]3O)c3c(c2Cl)OCCC3)cc1 [Example E023, (2S,3R,4R,5S,6R)-2-(8-Chloro-7-(4-ethylbenzyl)chroman-5-yl)-6-(hydroxymethyl)tetrahydro-2H-pyran-3,4,5-triol] |
| 1.52 | CCOc1ccc(Cc2cc([C@@H]3O[C@H](CO)[C@@H](O)[C@H](O)[C@H]3O)c3c(c2Cl)OCC3)cc1 [Example E024, (2S,3R,4R,5S,6R)-2-(7-Chloro-6-(4-ethoxybenzyl)-2,3-dihydrobenzofuran-4-yl)-6-(hydroxymethyl)tetrahydro-2H-pyran-3,4,5-triol] |
| 1.85 | OC[C@H]1O[C@@H](c2ccc(Cl)c(Cc3ccc4ncccc4c3)c2)[C@H](O)[C@@H](O)[C@@H]1O [Example E025, (2S,3R,4R,5S,6R)-2-(4-Chloro-3-(quinolin-6-ylmethyl)phenyl)-6-(hydroxymethyl)tetrahydro-2H-pyran-3,4,5-triol] |
| 8.63 | OC[C@H]1O[C@@H](c2ccc(Cl)c(Cc3ccc4nccnc4c3)c2)[C@H](O)[C@@H](O)[C@@H]1O [Example E026, (2S,3R,4R,5S,6R)-2-(4-Chloro-3-(quinoxalin-6-ylmethyl)phenyl)-6-(hydroxymethyl)tetrahydro-2H-pyran-3,4,5-triol] |
| 4.38 | OC[C@H]1O[C@@H](c2ccc(Cl)c(Cc3ccc4c(c3)OCCCO4)c2)[C@H](O)[C@@H](O)[C@@H]1O [Example E029, (2S,3R,4R,5S,6R)-2-(4-Chloro-3-((3,4-dihydro-2H-benzo[b][1,4]dioxepin-7-yl)methyl)phenyl)-6-(hydroxymethyl)tetrahydro-2H-pyran-3,4,5-triol] |
| 9.62 | Cc1ccc([C@@H]2O[C@H](CO)[C@@H](O)[C@H](O)[C@H]2O)cc1Cc1ccc2c(c1)OCCCO2 [Example E030, (2S,3R,4R,5S,6R)-2-(3-((3,4-Dihydro-2H-benzo[b][1,4]dioxepin-7-yl)methyl)-4-methylphenyl)-6-(hydroxymethyl)tetrahydro-2H-pyran-3,4,5-triol] |
| 0.865 | OC[C@H]1O[C@@H](c2ccc(Cl)c(Cc3ccc4sccc4c3)c2)[C@H](O)[C@@H](O)[C@@H]1O [Example E031, (2S,3R,4R,5S,6R)-2-(3-(Benzo[b]thiophen-5-ylmethyl)-4-chlorophenyl)-6-(hydroxymethyl)tetrahydro-2H-pyran-3,4,5-triol] |
| 2.16 | OC[C@H]1O[C@@H](c2ccc(Cl)c(Cc3ccc4c(c3)CCS4)c2)[C@H](O)[C@@H](O)[C@@H]1O [Example E032, (2S,3R,4R,5S,6R)-2-(4-Chloro-3-((2,3-dihydrobenzo[b]thiophen-5-yl)methyl)phenyl)-6-(hydroxymethyl)tetrahydro-2H-pyran-3,4,5-triol] |
